Experimental data as given in publication PMC5665883, “Antithrombotic properties of JJ1, a potent and novel thrombin inhibitor” (Scientific Reports, 2017).
Marks after values point to notes of the source that are not given here.

Key:
[1] = test system: human plasma; assay: In vitro PT clotting time; type: biochemical; conditions: for PT / PT (INR): in vitro
Procedure: The aPTT and PT were determined using a Thrombotimer (Behnk Elektronik, Norderstedt, Germany) in accordance with the manufacturer’s instructions and as previously described. Briefly, citrated normal human plasma (90 μL) was mixed with 10 μL JJ1 and incubated for 1 min at 37 °C. Subsequently, the aPTT assay reagent (100 μL) was added, the plasma sample was incubated for an additional 1 min at 37 °C, 20 mM CaCl2 (100 μL) was added, and the clotting times were recorded. For the PT assays, citrated normal human plasma (90 μL) was mixed with 10 μL JJ1 stock solution and was incubated for 1 min at 37 °C. The PT assay reagent (200 μL), which had been pre-incubated for 10 min at 37 °C, was subsequently added and the clotting time was recorded. The PT results were expressed in seconds and as International Normalized Ratios (INR): INR = (PT sample/PT control)^ISI, where ISI = international sensitivity index. The aPTT results were also expressed in seconds. All experimental protocols (KNUH 2012-01-010) were approved by the Institutional Review Board of Kyungpook National University Hospitals (Daegu, Republic of Korea).

[2] = biological target: T1, clot-bound thrombin (Homo sapiens, UniProt P00734); assay: Clot-bound thrombin assay, FPA generation (ELISA); type: biochemical; conditions: 60 min of incubation, FPA by ELISA; read-out: IC50, inhibition of FPA generation by clot-bound thrombin
T1 construct: Fibrin clots were formed by recalcification of citrated plasma and washed extensively; from tissue; host or cells: fibrin clots from recalcified citrated plasma
Procedure: Fibrin clots were formed by recalcification of citrated plasma and washed extensively to remove any FPA trapped within the clots. Plasma was then placed over the washed clots and FPA generation was determined. There was a time-dependent generation of FPA in plasma that was not caused by the release of FPA trapped within the washed clots, because the addition of buffer over the clots produced only a minimal amount of FPA (5.25 ± 0.35 nM at 60 min) (Fig. 8). The endogenous FPA level was 5.05 ± 0.31 nM in these studies.
The generation of FPA in plasma with or without JJ1 was quantified in accordance with the manufacturer’s instructions by using a commercially available ELISA kit (LSBio, Seattle, WA). Values were measured using an ELISA plate reader (Tecan, Austria GmbH, Austria).

[3] = biological target: T2, Factor Xa (Homo sapiens, UniProt P00742); assay: Chromogenic substrate assay, Ki (Dixon); type: biochemical
T2 construct: thrombin versus trypsin, factor Xa, elastase, plasmin, protein Ca, streptokinase, tPA, and urokinase; purchased Haematologic Technologies (Essex Junction, VT)
T2 sequence (P00742 235-488 limits assumed): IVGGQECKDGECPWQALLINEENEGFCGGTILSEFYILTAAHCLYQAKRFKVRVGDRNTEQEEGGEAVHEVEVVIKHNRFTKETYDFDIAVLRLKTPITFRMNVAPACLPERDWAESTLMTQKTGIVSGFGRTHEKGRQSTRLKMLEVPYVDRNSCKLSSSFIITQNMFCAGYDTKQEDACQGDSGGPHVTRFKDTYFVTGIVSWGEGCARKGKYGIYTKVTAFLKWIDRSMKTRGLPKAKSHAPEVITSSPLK
T2 sequence (P00742 41-179 limits assumed): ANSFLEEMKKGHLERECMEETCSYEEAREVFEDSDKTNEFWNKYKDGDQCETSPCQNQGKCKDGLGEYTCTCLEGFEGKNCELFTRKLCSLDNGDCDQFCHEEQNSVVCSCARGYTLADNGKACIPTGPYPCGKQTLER

[4] = test system: human plasma; assay: In vitro aPTT clotting time; type: biochemical; conditions: at the maximum antithrombotic dose
[5] = Acute pulmonary thrombosis induced by collagen and epinephrine; type: in vivo, C57BL/6 mice; conditions: mice, i.v. 1 h before collagen (500 μg/kg) plus epinephrine (50 μg/kg)
Procedure: Male C57BL/6 mice were fasted overnight and divided into groups of 10 animals. JJ1 suspended in DMSO was administered to mice intravenously. After 1 h, a mixture of collagen (500 μg/kg) plus epinephrine (50 μg/kg) was injected into the tail vein of mice to induce acute thrombosis 1 h later. Each mouse was carefully examined for 15 min to determine whether the mouse was paralyzed, dead, or had recovered from the acute thrombotic challenge. Five separate experiments were performed and the results were subjected to statistical analysis.

[6] = test system: mouse platelet; assay: Ex vivo thrombin-induced platelet aggregation; type: in vivo; conditions: i.v. injection
Procedure: The in vitro platelet aggregation study was performed according to a previously reported method[59],[62]. Washed human platelets were incubated with the indicated concentration of JJ1 in DMSO for 1, 3, 5, or 10 min and subsequently stimulated by thrombin in 0.9% saline solution at 37 °C for 5 min. Platelet aggregation was recorded using an aggregometer (Chronolog, Havertown, PA, USA). For the ex vivo aggregation assay, male mice were fasted overnight and the indicated concentration of JJ1 in DMSO was administered by i.v. injection. After 24 h, PRP (10^9 platelets/mL) in a total volume of 240 μL was incubated at 37 °C for 1.5 min in the aggregometer with continuous stirring at 1000 rpm and subsequently stimulated with thrombin. Platelet aggregation was recorded as described above.

[7] = biological target: Streptokinase (Homo sapiens, UniProt P00747); assay: Chromogenic substrate assay, Ki (Dixon); type: biochemical
Chain of Streptokinase (P00747 581-810 limits assumed): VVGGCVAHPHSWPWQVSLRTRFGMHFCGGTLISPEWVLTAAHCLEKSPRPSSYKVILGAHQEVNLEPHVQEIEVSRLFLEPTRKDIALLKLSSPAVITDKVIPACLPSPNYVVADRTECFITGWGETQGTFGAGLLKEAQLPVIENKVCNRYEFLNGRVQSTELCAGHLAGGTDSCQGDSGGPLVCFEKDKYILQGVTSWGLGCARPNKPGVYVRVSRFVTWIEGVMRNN

[8] = In vivo tail bleeding time; parameters: species or system C57BL/6 mice; conditions: mice, i.v. injection, 1 h after administration
Procedure: Tail bleeding times were measured by using the method of Dejana et al.[63],[64]. Briefly, C57BL/6 mice were fasted overnight prior to the experiments. One hour after the i.v. administration of JJ1, the tails of the mice were transected at 2 mm from their tips. The bleeding time was defined as the time elapsed until the bleeding stopped. Bleeding times exceeding 15 min were recorded as lasting for 15 min.

[9] = biological target: Trypsin; assay: Chromogenic substrate assay, Ki (Dixon); type: biochemical, human; conditions: Trypsin; mean ± SD (n = 5)
Procedure: Chromogenic substrate assays were performed using a Labsystems IEMS (Cergy Pontoise, France) microtiter plate reader. K i values were calculated according to the method of Dixon[65]. In each assay, the compound was tested at a minimum of seven concentrations, in duplicate, to obtain an inhibition curve. The following general procedures were adopted for each assay. In a 96-well microtiter plate, 25 μL of inhibitor solution or buffer was added to 50 μL of substrate. The enzyme solution (25 μL) was added just before the plate was placed in the microtiter plate reader for 1 h at 37 °C. The hydrolysis of the substrate yields p-nitroaniline, which was continuously monitored spectrophotometrically at 405 nm. The maximal initial reaction rates were calculated and expressed as millioptical density per minute.

c1ccc2c(NC3CCCC3)nc(Nc3ccncc3)nc2c1 [JJ1]
Concentration that doubled the clotting time, PT assay [1]: 1.61 µM
PT ([1]; 0.05 μM): 12.1 ± 0.2 s
PT (INR) ([1]; 0.05 μM): 1.04 INR
PT ([1]; 0.1 μM): 11.7 ± 0.4 s
PT (INR) ([1]; 0.1 μM): 0.96 INR
PT ([1]; 0.2 μM): 12.7 ± 0.5 s
PT (INR) ([1]; 0.2 μM): 1.17 INR
PT ([1]; 0.5 μM): 15.4 ± 0.4 s
PT (INR) ([1]; 0.5 μM): 1.86* INR
PT ([1]; 1.0 μM): 21.4 ± 0.5 s
PT (INR) ([1]; 1.0 μM): 4.09* INR
PT ([1]; 2.0 μM): 25.8 ± 0.3 s
PT (INR) ([1]; 2.0 μM): 6.41* INR
PT ([1]; 5.0 μM): 26.5 ± 0.4 s
PT (INR) ([1]; 5.0 μM): 6.83* INR
IC50 [2]: 2.45 µM
Ki ([3]; Factor Xa): > 250 µM
Selectivity ratio ([3]; K i Factor Xa/K i α-thrombin): >10,000
Prolongation of aPTT [4]: 2.17 fold
Mortality [5]: decreased significantly
Mouse platelet aggregation induced by thrombin, ex vivo [6]: confirmed in an ex vivo platelet aggregation assay
Selectivity ratio ([7]; K i Streptokinase/K i α-thrombin): >10,000
Ki ([7]; Streptokinase): > 250 µM
Tail bleeding time ([8]; 0.31 μg/mouse): 30.6 ± 0.8 s
Tail bleeding time ([8]; 0.61 μg/mouse): 37.2 ± 1.0 s
Tail bleeding time ([8]; 1.23 μg/mouse): 44.8 ± 1.2 s
Tail bleeding time ([8]; 3.06 μg/mouse): 52.2 ± 1.4 s
Ki [9]: > 250 µM
